According to patent publication US20240197896A1, “SYNTHETIC PEPTIDE SHUTTLE AGENT BIOCONJUGATES FOR INTRACELLULAR CARGO DELIVERY” (FELDAN BIO INC., priority 2021, published 2024):
Read-outs that look alike come from different tables or passages of the source. Values belong to the molecule of their own block, whether it stands above or below them. Ends that are not written are not given here.

How the values were obtained:
[1] = Cell viability / cytotoxicity in HeLa transduction assays (flow cytometry FSC/SSC); format: cell-based; conditions: human, HeLa cells
Method: (§1) HeLa cells were plated (20 000 cells/well) in a 96 well-dish one day prior to transduction. Each delivery mix comprising a PEGylated shuttle agent (monomer or multimer) or a non-PEGylated shuttle agent at the indicated concentration(s) and 10 μM of a fluorescent cargo (e.g., GFP-NLS or DRI-NLS^647) was prepared in 50 μL with RPMI 1640 media completed with 10% human serum. Cells were washed once with PBS 1×, then incubated for 5 minutes with the prepared shuttle/cargo mix, PEGylated shuttle agent/cargo mix, and/or with the cargo alone as a negative control. After the incubation, 100 μL of DMEM containing 10% FBS was added to the mix and removed. Cells were washed once with PBS 1× and incubated in DMEM containing 10% FBS. Cells were then analyzed after a 1-hour incubation by fluorescence microscopy (Revolve, Echo: San Diego, CA, USA) and flow cytometry (Cytoflex™, Beckman Coulter: Indianapolis, IN, USA).
The signal intensity emitted by the fluorescent cargo and the percentage of cargo delivered cells was quantified by flow cytometry. Untreated cells were used to establish a baseline to quantify the increase in fluorescence that results from a successful internalization of the cargo in the presence of the shuttle agent in the treated cells. The percentage of cells with a fluorescence signal greater than the maximum fluorescence of untreated cells, “mean %” or “Pos cells (%)”, was used to identify positive fluorescent cells for determining transduction efficiency. The mean fluorescence intensity (Mean-FITC/APC) is the average of all fluorescence intensities of each cell with a fluorescent signal after delivery of fluorescent cargos. “Delivery scores” were calculated to provide a further indication of the total amount of cargo that was delivered per cell amongst all cargo-positive cells and was calculated by multiplying the mean fluorescence intensity (of at least duplicate samples) measured for the viable cargo-positive cells, by the mean percentage of viable cargo-positive cells, divided by 100,000. Finally, a “Delivery-Viability Score” was sometimes calculated for each peptide as the Mean viability multiplied by the Delivery Score multiplied by 10, enabling a ranking of the shuttle agents in terms of both their transduction activity and toxicity. Furthermore, the events detected by the cytometer and which correspond to the cells (size and granularity) were analyzed. Cellular toxicity (% cell viability) is obtained by comparing the size (FSC) and granularity (SSC) of each cell delivery condition to untreated cells. The delivery conditions of the cells also included the “cargo only” as a control.

[2] = tested on: cells; conditions: following the cells being exposed to the shuttle agent and cargo; cited from earlier work
[3] = in vitro; conditions: human, cerebrospinal or other body fluid
Excerpt: To evaluate the effect of sputum from CF patients on the shuttle agent conjugates, degradation of FSD10 or FSD10-mal-PEG20K was first assessed to determine whether addition of a PEG on the shuttle was protective from the sputum.

[4] = tested on: HeLa cells; assay: In vitro transduction of GFP-NLS cargo in HeLa cells (flow cytometry and fluorescence microscopy); format: cell-based; conditions: used at 10 μM; 10% human serum
Method: as §1, with “Cells were washed once with PBS 1× and incubated in DMEM containing 10% FBS.” left out
(§2) The signal intensity emitted by the fluorescent cargo and the percentage of cargo delivered cells was quantified by flow cytometry. Untreated cells were used to establish a baseline to quantify the increase in fluorescence that results from a successful internalization of the cargo in the presence of the shuttle agent in the treated cells. The percentage of cells with a fluorescence signal greater than the maximum fluorescence of untreated cells, “mean %” or “Pos cells (%)”, was used to identify positive fluorescent cells for determining transduction efficiency. […]

[5] = tested on: HeLa cells; assay: In vitro transduction of DRI-NLS^647 cargo in HeLa cells (flow cytometry and fluorescence microscopy); format: cell-based, Human; conditions: used at 10 μM; cargo 10 μM
Method: as §1, with “Cells were washed once with PBS 1× and incubated in DMEM containing 10% FBS.” left out
as §2

Molecule: N=C(N)NCCC[C@H](NC(=O)[C@H](CCCNC(=N)N)NC(=O)[C@H](CCCNC(=N)N)NC(=O)[C@H](CCC(N)=O)NC(=O)[C@H](CCCNC(=N)N)NC(=O)[C@H](CCCNC(=N)N)NC(=O)[C@H](CCCCN)NC(=O)[C@H](CCCCN)NC(=O)[C@H](CCCNC(=N)N)NC(=O)CNC(=O)[C@@H](N)Cc1ccc(O)cc1)C(=O)O [TAT]
viability at 5 min ([1]; concentrations of 10 to 220 μM (data not shown), read-out: viabilities): > 80%

Molecule: His-CM18-PTD4: first generation shuttle agent (HHHHHHKWKLFKKIGAVLKVLTTGYARAAARQARA; His-CM18-PTD4)
time to deliver GFP-NLS cargo to the cytosol [2]: 45 s

metabolised at 5 min [3]: 40%
Molecule: KWKLARAFARAIKKLGGSGGGSYARALRRQARTG [FSD10]
viability at 5 min, 20 µM ([1]; shuttle agent at 20 μM, 10 μM GFP-NLS): 55% | viability at 5 min, 40 µM ([1]; shuttle agent at 40 μM, 10 μM GFP-NLS): 6% | viability at 5 min ([1]; shuttle agent, 10 μM GFP-NLS, read-out: cell viabilities): < 10%

Molecule: FSD10scr: negative control peptide, same amino acids of FSD10 rearranged in a scrambled order (KWKLARAFARAIKKLGGSGGGSYARALRRQARTG; FSD10 Scarmble)
nuclear cargo transduction of GFP-NLS by microscopy [4]: no significant transduction | nuclear cargo transduction of independent DRI-NLS^647 by microscopy [5]: no significant transduction
